Laboratory results taken from patent publication US20250025440A1, “COMPOSITIONS AND METHODS FOR MANAGEMENT OF HUMAN PAPILLOMA VIRUS-ASSOCIATED CANCERS” (LOMA LINDA UNIVERSITY, priority 2021, published 2025).
“Also recorded” adds a separate entry of the source.

Columns and labels:
Format in all cases: cell-based
[1] = test system: HPV- (SCC19, SCC29) and HPV+ (SCC47, SCC104, SCC152) HNSCC cell lines; assay: Sensitization of HNSCC cell lines to photon radiation; conditions: radiation 0-4Gy followed by inhibitor; DER10
Experimental: The dose enhancement ratio for 10% survival (DER10) was calculated as follows: DER10=(Dose correlated with 10% survival fraction in radiation-treated cells)/(Dose correlated with 10% survival fraction in radiation and inhibitor treated cells).
CCDP, Cetuximab, and GA-OH were evaluated for their ability to sensitize HNSCC cell lines to photon radiation.
Colonies were counted after 14-21 days and normalized to vehicle control and survival analysis was performed.
Sensitization of an additional HPV^+ cell line to radiation by CDDP, Cetuximab and GA-OH was evaluated.

[2] = test system: HPV+ (SCC47, SCC090, SCC104, SCC152) and HPV- (SCC19, SCC29, SCC49, SCC84) HNSCC cell lines; assay: MTT cell viability, HNSCC panel
Experimental: While SAR studies using the SCC104 cell line provided evidence of the activity of the analogs, further studies were conducted to assess not just the potency, but also the selectivity. As a step towards that goal, the efficacy of GA-OH was evaluated in a panel containing both HPV^+ and HPV^− HNSCC cell lines using MTT cell viability assays. Four HPV^+ cell lines (SCC47, SCC090, SCC104, SCC152) and four HPV^− cell lines (SCC19, SCC29, SCC49, SCC84) were utilized. GA-OH behaved dose dependently in cell lines both with or without HPV. […] FIGS. 7A-7C are graphical representations of the sensitivity of HPV^+ cell lines and HPV^− cell lines to GA-OH-mediated growth inhibition. FIG. 7A is a graphical representation of the cell growth inhibition of HNSCC HPV^+ and HPV^− cell lines by GA-OH (+ and closed shapes represent HPV^+ cell lines and − and open shapes the HPV^− cell lines). […] These cells were good controls, as HPV is an established causative agent in CC carcinogenesis. Two HPV^+ cell lines, SiHa and CaSki were selected as the positive controls and the Saos-2 cell line was used as an HPV-negative control. […] FIG. 7B is a graphical representation of the cell growth inhibition of cervical cancer HPV^+ and HPV^− cell lines by GA-OH. HPV^+ cell lines display higher sensitivity than do HPV^− cell lines as shown by the leftwards shift of the HPV^+ curves (SCC47, 90, 104, 152 in FIG. 7A and SiHa and CaSki in FIG. 7B).
All working concentrations were diluted in PBS to the desired concentration before use. To test the effect of gambogic acid and/or its derivatives on cell viability, all cell lines were seeded at 2×10^4 per well in 96-well plates and allowed to adhere overnight. Various concentrations of the analogues were added and the cells incubated at 37° C. for 24 hr. Viability was then measured using the MTT assay, performed as described previously. […] Cell viability and potency were assessed from % inhibition relative to the vehicle control, and IC50 dose curves were generated using GraphPad Prism.

[3] = test system: SCC90 and SCC104 (HPV+) cells; assay: Western blotting of p53 and apoptosis mediators; conditions: 0.5 μM and 1 μM, 24 hours
Experimental: (§1) Based on the cell viability studies described above, as well as AlphaScreen™ data showing that that GA-OH prevents E6 from binding to both caspase 8 and the p53-recruiter, E6AP, activation of p53 and associated apoptotic effects could be contributing to the decrease in cell viability. Levels of p53 and its target gene product, p21, were evaluated using immunoblotting. […] FIG. 8A is a photographic image of blots analyzing Caspase 8 expression and activation of downstream targets. SCC19, SCC90 and SCC104 were seeded and treated with vehicle, 0.5 μM and 1 μM Of GA-OH for 24 hours. Activation of p53 was tested by blotting for p53 expression and activation. Caspase 8 activation and apoptosis was tested by blotting for Caspase 8 expression and activation of downstream targets. These observations were corroborated by an induction of the levels of the target of p53, p21. […] The basal levels of p53 in the HPV^+ cell lines are lower compared to the HPV^− cell line.
(§2) The effect of GA-OH treatment on activation of another target of E6, caspase 8, and its downstream targets in the apoptosis cascade was evaluated. […] There is a noticeable increase in caspase 8 levels in the HPV^− cell line upon exposure to GA-OH. […] Quantification of relative expression of each of the targets above using B-actin as a loading control. FIGS. 9A-9E are graphical representations of the relative expression of cleaved PARP, p53, p21, cleaved caspase 3, and cleaved caspase 8, respectively in SCC19, SCC90 and SCC104 cell lines when treated with vehicle, or 0.5 μM, or 1 μM of GA-OH, each of the targets above using B-actin as a loading control is shown.
(§3) Adherent cells were washed with ice cold PBS. Cell lysis buffer containing protease inhibitor cocktail was added and cells were scraped off into a tube on ice. The cells were incubated on ice for 10 minutes. Cell lysates were separated by SDS-PAGE and electrophoretically transferred to PVDF membranes. Following blocking, antibodies directed against caspase 8, p53, cleaved PARP, cleaved caspase 3, p21, and β-actin (Cell signaling) were applied at 1:5000 dilution. Anti-mouse and anti-rabbit secondary antibodies were then employed (LI-COR Biosciences, Lincoln, NE, USA). Signals were measured using the Odyssey Infrared Imaging system (LI-COR Biosciences) and quantified using Image J.

SCC19 (HPV-) cells = assay: Western blotting of p53 and apoptosis mediators; conditions: HPV- cell line, 0.5 μM and 1 μM, 24 hours
Experimental: as §1, §2, §3

## 30-hydroxygambogic acid [GA-OH]
[1]
  sensitization to photon radiation: most sensitization in HPV+ cell lines; also recorded: less than that of CDDP but greater than cetuximab
[2]
  potency and selectivity for HPV+ versus HPV- cells: more potent and selective
[2]; MTT
  cell growth inhibition, sensitivity of HPV+ versus HPV- cell lines: displayed higher sensitivity
[3]
  PARP cleavage: cleavage is modest
  caspase 3 cleavage: cleaved dose-dependently
  caspase 8 cleavage: cleavage of caspase 8 in a dose-dependent manner
  p53 level: increase of p53
[3]; vs vehicle
  p21 level: robust induction of p21 levels
SCC19 (HPV-) cells
  caspase 8 cleavage: no visible cleavage of caspase 8
